System: Experimental Autoimmune Encephalomyelitis (EAE)
Conditions: MOG35-55 induced EAE; i.p. daily from day 0; Compound 1 3 mg/kg, Cyclosporine A 10 mg/kg; score 0-8; mean ± SEM

## Cyclosporine A
  MaxES (Maximum EAE score): 3.0±0.1

— patent EP3656762A1, “COMPOUNDS FOR THE TREATMENT OF NF-KB-RELATED DISEASES OR DISORDERS” (Instituto Biomar S.A., priority 2018, dated 2020)
